≈ marks a conversion by molar mass, not a printed value.
Key:
Bacillus subtilis = assay: MIC, broth microdilution; assay type: cell-based
Experimental: (§1) Micrococcus pyogenes (ATCC 11631), Bacillus subtilis (ATCC 11774), Lactobacillus iners (ATCC 55195), Escherichia coli (ATCC 11775), Proteus mirabilis (ATCC 14153), Klebsiella pneumoniae (ATCC 10031), Shigella sonnei (ATCC 11060), Neisseria gonorrhoeae (ATCC 19424), Salmonella typhimurium (ATCC 14028) Salmonella paratyphi B (ATCC 10719), Helicobacter pylori (ATCC 43504) and several strains of Atopobium vaginae and Gardnerella vaginalis.
(§2) Strains were prepared from freeze-dried pellets. An isolation of the suspensions (to test the strains purity) and a strains massive growth were made by streaking microbial suspensions on agar media. The bacterial colonies on agar plates were collected with 3-5 mL of specific liquid medium+15% glycerol and then the aliquots were frozen at −80° C.
(§3) Compounds Minimal Inhibitory Concentration (MIC) was determined through broth micro-dilution susceptibility testing with a method developed following the National Committee for Clinical Laboratory Standards (CLSI) M07-A8 and M11-A7 references. Assays were carried out in specific media (Table 3). The tests were performed either following the broth microdilution assay or the agar dilution assay. Compounds stock solutions were made at 12.8 mg/mL in DMSO 100%. A series of twofold dilutions were then prepared using the strain specific broth. Final concentrations were from 0.125 μg/mL to 64 μg/mL at 1% DMSO. MIC is defined as the lowest concentration of antibacterial agent which prevent any visible growth.

[1] = test system: Escherichia coli ATCC 11775; assay: MIC, broth microdilution; assay type: cell-based; details: Escherichia coli, ATCC11775
Experimental: as §1, §2, §3

[2] = test system: Helicobacter pylori ATCC 43504; assay: MIC, broth microdilution; assay type: cell-based; details: Helicobacter pylori, ATCC43504
Experimental: as §1, §2, §3

[3] = test system: Klebsiella pneumonia ATCC 10031; assay: MIC, broth microdilution; assay type: cell-based; details: Klebsiella pneumoniae, ATCC10031
Experimental: as §1, §2, §3

[4] = test system: Lactobacillus iners ATCC 55195; assay: MIC, broth microdilution; assay type: cell-based; details: Lactobacillus iners, ATCC55195
Experimental: as §1, §2, §3

[5] = test system: Micrococcus pyogenes ATCC 11631; assay: MIC, broth microdilution; assay type: cell-based; details: Staphylococcus aureus, ATCC11631
Experimental: as §1, §2, §3

[6] = test system: Neisseria gonorrhoeae ATCC 19424; assay: MIC, broth microdilution; assay type: cell-based; details: Neisseria gonorrhoeae, ATCC19424
Experimental: as §1, §2, §3

[7] = test system: Proteus mirabilis ATCC 14153; assay: MIC, broth microdilution; assay type: cell-based; details: Proteus mirabilis, ATCC14153
Experimental: as §1, §2, §3

[8] = test system: Salmonella paratyphi B ATCC 10719; assay: MIC, broth microdilution; assay type: cell-based; details: Salmonella enterica
Experimental: as §1, §2, §3

[9] = test system: Salmonella typhimurium ATCC 14028; assay: MIC, broth microdilution; assay type: cell-based; details: Salmonella enterica
Experimental: as §1, §2, §3

[10] = test system: Shigella sonnei ATCC 11060; assay: MIC, broth microdilution; assay type: cell-based; details: ATCC11060
Experimental: as §1, §2, §3

Atopobium vaginae = assay: MIC, agar dilution; assay type: cell-based; details: Fannyhessea vaginae
Experimental: as §1, §2, §3

Gardnerella vaginalis = assay: MIC, agar dilution; assay type: cell-based
Experimental: as §1, §2, §3

in vivo [11] = details: male, rat, iv, 2 mg/kg
in vivo [12] = details: male, rat, po, 15 mg/kg

CSCC1CN(/N=C/c2ccc([N+](=O)[O-])o2)C(=O)O1 (racemic) [Nifuratel racemate, Nifuratel]
MIC (Bacillus subtilis): 0.5 mg/L (≈ 1.75 µM)
MIC [1]: 1 mg/L (≈ 3.51 µM)
MIC [2]: 0.125 mg/L (≈ 0.438 µM)
MIC [3]: 2 mg/L (≈ 7.01 µM)
MIC [4]: 16 mg/L (≈ 56.1 µM)
MIC [5]: 1 mg/L (≈ 3.51 µM)
MIC [6]: 0.25 mg/L (≈ 0.876 µM)
MIC [7]: 8 mg/L (≈ 28 µM)
MIC [8]: 2 mg/L (≈ 7.01 µM)
MIC [9]: 4 mg/L (≈ 14 µM)
MIC [10]: 1 mg/L (≈ 3.51 µM)
MIC (Atopobium vaginae; CCUG38953): 0.125 mg/L (≈ 0.438 µM)
MIC (Atopobium vaginae; CCUG39382): 0.25 mg/L (≈ 0.876 µM)
MIC (Atopobium vaginae; CCUG42099): 0.5 mg/L (≈ 1.75 µM)
MIC (Atopobium vaginae; CCUG43049): 0.25 mg/L (≈ 0.876 µM)
MIC (Atopobium vaginae; CCUG44061): 0.5 mg/L (≈ 1.75 µM)
MIC (Atopobium vaginae; CCUG44156): 0.5 mg/L (≈ 1.75 µM)
MIC (Atopobium vaginae; CCUG48515): 1 mg/L (≈ 3.51 µM)
MIC (Atopobium vaginae; CCUG55226): 1 mg/L (≈ 3.51 µM)
MIC (Atopobium vaginae; CCUG55227): 0.25 mg/L (≈ 0.876 µM)
MIC (Gardnerella vaginalis; ATCC14018, agar dilution, Gardnerella vaginalis ATCC 14018): 2 mg/L (≈ 7.01 µM)
MIC (Gardnerella vaginalis; agar dilution, Gardnerella vaginalis C2): 8 mg/L (≈ 28 µM)
MIC (Gardnerella vaginalis; agar dilution, Gardnerella vaginalis D2): 4 mg/L (≈ 14 µM)
MIC (Gardnerella vaginalis; agar dilution, Gardnerella vaginalis E2): 2 mg/L (≈ 7.01 µM)
MIC (Gardnerella vaginalis; agar dilution, Gardnerella vaginalis G2): 2 mg/L (≈ 7.01 µM)
MIC (Gardnerella vaginalis; agar dilution, Gardnerella vaginalis H2): 1 mg/L (≈ 3.51 µM)
MIC (Gardnerella vaginalis; agar dilution, Gardnerella vaginalis J2): 2 mg/L (≈ 7.01 µM)
MIC (Gardnerella vaginalis; agar dilution, Gardnerella vaginalis K2): 4 mg/L (≈ 14 µM)
AUC(0-inf) (in vivo [11]): 0.125 µg·h/mL
AUC(0-t) (in vivo [11]): 0.122 µg·h/mL
Clast (in vivo [11]): 5 ng/mL
Cmax (in vivo [11]): 555 ng/mL
MRT (in vivo [11]): 13 min
Tlast (in vivo [11]): 120 min
Tmax (in vivo [11]): 2 min
VSR (in vivo [11]): 4.5 L/kg
clearance (in vivo [11]): 16 L/h/kg
half-life (in vivo [11]): 24 min
AUC(0-t) (in vivo [12]): 0.0203 µg·h/mL
Clast (in vivo [12]): 3 ng/mL
Cmax (in vivo [12]): 8 ng/mL
MRT (in vivo [12]): 109 min
Tlast (in vivo [12]): 240 min
Tmax (in vivo [12]): 30 min
half-life (in vivo [12]): 182 min
